The values that follow come from ChEMBL document CHEMBL5143657, “Discovery, Topo I inhibitory activity and mechanism evaluation of two novel cytisine-type alkaloid dimers from the seeds of Sophora alopecuroides L” (Bioorg Med Chem, 2022).

Each structure is given as a SMILES string. Active and inactive are the calls of the source. The rule behind the calls is not given here.

The target in experiment [1] is T1, DNA topoisomerase 1 (Homo sapiens) (UniProt P11387).
T1 sequence (whole entry): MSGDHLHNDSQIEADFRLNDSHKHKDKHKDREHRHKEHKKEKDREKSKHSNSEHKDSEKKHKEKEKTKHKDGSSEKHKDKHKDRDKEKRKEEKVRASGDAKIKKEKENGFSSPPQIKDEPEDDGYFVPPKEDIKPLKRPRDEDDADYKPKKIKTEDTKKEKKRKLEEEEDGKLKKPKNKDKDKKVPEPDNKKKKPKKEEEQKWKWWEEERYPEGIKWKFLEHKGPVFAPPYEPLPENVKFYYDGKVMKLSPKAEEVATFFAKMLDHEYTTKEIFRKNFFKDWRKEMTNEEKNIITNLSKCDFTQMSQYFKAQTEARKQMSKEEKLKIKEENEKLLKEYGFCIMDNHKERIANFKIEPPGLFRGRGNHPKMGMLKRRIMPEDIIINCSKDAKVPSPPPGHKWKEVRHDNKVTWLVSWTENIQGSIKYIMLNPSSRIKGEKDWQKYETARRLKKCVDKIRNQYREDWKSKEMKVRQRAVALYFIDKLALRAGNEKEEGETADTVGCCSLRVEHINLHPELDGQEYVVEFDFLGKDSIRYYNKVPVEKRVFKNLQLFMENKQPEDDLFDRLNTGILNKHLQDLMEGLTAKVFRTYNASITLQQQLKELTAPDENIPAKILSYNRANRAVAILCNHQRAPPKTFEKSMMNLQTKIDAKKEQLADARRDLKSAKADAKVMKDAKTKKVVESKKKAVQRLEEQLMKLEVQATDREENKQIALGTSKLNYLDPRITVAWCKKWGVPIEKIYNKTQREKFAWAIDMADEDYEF
The experiment is described as follows: Inhibition of topoisomerase 1 (unknown origin) assessed as reduction in relaxation of supercoiled DNA at 1 mM using pBR322 plasmid DNA as substrate measured after 30 mins by gel electrophoresis relative to control.

The target of experiment [2] is T1, DNA topoisomerase 1 (Homo sapiens). The experiment is described as follows: Poison activity at topoisomerase 1 (unknown origin) assessed as stabilization of enzyme-DNA cleavage complex by measuring increase in nicked DNA formation at 1 mM using pBR322 DNA as substrate after 30 mins by agarose gel electrophoresis.
Experiment [3] has the same target. The experiment is described as follows: Inhibition of topoisomerase 1 (unknown origin) assessed as DNA intercalation at 1 mM using pBR322 DNA as substrate measured after 30 mins by gel electrophoresis relative to control.

With `O=C1CCC[C@H]2[C@@H]3CCCN[C@H]3[C@H](CCCN3C[C@H]4C[C@H](C3)c3cccc(=O)n3C4)CN12`, the inhibition in experiment [1] turned out to be 82.3%. Further, in experiment [2], the outcome was Active. With `CC[n+]1c(-c2ccccc2)c2cc(N)ccc2c2ccc(N)cc21`, the inhibition entry in experiment [3] is “Active”. Regarding `O=C1CCC[C@H]2[C@H]3CCCN[C@@H]3[C@@H](CCCN3C[C@H]4C[C@H](C3)c3cccc(=O)n3C4)CN12`, in experiment [1], the inhibition came out at 58.6%. The outcome in experiment [2] was Active.
